In US9409922B2, “Imidazopyridine macrocycles as inhibitors of human immunodeficiency virus replication” (priority 2014, dated 2016):

What follows are compounds tested on NL-RLuc virus (assay: Inhibition of HIV replication: NL-RLuc reporter virus in MT-2 cells, luciferase readout). Conditions: Human immunodeficiency virus 1, MT2, 120 h, MT-2 cells infected with NL-RLuc virus, 5 days of incubation, 10% FBS, at least 2 experiments.
Format: cell-based
Method in brief: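 Renilla luciferase reporter virus (NL4-3 nef replaced), produced in 293T cells, infected MT-2 cells with serial compound dilutions for 5 days in RPMI 1640 with 10% FBS, 10 mM HEPES pH 7.55. Luciferase measured; EC50 from median effect equation, at least 2 experiments.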
In the case of `CCc1c(C)c([C@H](OC(C)(C)C)C(=O)O)c2n3cc(nc13)-c1cccc(c1)-c1cc(F)ccc1O[C@@H](C)CCCCOC1(C)CCN2CC1` [Example 55, (2S)-2-(tert-Butoxy)-2-[(22S)-5-ethyl-17-fluoro-4,22,28-trimethyl-21,27-dioxa-1,7,34-triazahexacyclo[26.2.2.1^6,^9.1^10,^14.0^2,^7.0^15,^20]tetratriaconta-2,4,6(34),8,10(33),11,13,15(20),16,18-decaen-3-yl]acetic acid], the EC50 is reported as 0.009 µM.
`Cc1c([C@H](OC(C)(C)C)C(=O)O)c2n3cc(nc3c1C(C)C)-c1cccc(c1)-c1cc(F)ccc1O[C@@H](C)CCCCOC1(C)CCN2CC1` [Example 56, (2S)-2-(tert-Butoxy)-2-[(22S)-17-fluoro-4,22,28-trimethyl-5-(propan-2-yl)-21,27-dioxa-1,7,34-triazahexacyclo[26.2.2.1^6,^9.1^10,^14.0^2,^7.0^15,^20]tetratriaconta-2,4,6(34),8,10(33),11,13,15(20),16,18-decaen-3-yl]acetic acid] was tested, and the EC50 was 0.072 µM.
For `CCc1c(C)c([C@H](OC(C)(C)C)C(=O)O)c2n3cc(nc13)-c1cccc(c1)-c1cc(F)c(F)cc1O[C@@H](C)CCCCOC1(C)CCN2CC1` [Example 57, (2S)-2-(tert-Butoxy)-2-[(22S)-5-ethyl-17,18-difluoro-4,22,28-trimethyl-21,27-dioxa-1,7,34-triazahexacyclo[26.2.2.1^6,^9.1^10,^14.0^2,^7.0^15,^20]tetratriaconta-2,4,6(34),8,10(33),11,13,15(20),16,18-decaen-3-yl]acetic acid], the EC50 was 0.013 µM.
Compound `Cc1c([C@H](OC(C)(C)C)C(=O)O)c2n3cc(nc3c1Cl)-c1cccc(c1)-c1cc(F)ccc1O[C@@H](C)CCCCOC1(C)CCN2CC1` [Example 61, (2S)-2-(tert-Butoxy)-2-[(22S)-5-chloro-17-fluoro-4,22,28-trimethyl-21,27-dioxa-1,7,34-triazahexacyclo[26.2.2.1^6,^9.1^10,^14.0^2,^7.0^15,^20]tetratriaconta-2,4,6(34),8,10(33),11,13,15(20),16,18-decaen-3-yl]acetic acid] has an EC50 of 0.015 µM.
Work on `Cc1c([C@H](OC(C)(C)C)C(=O)O)c2n3cc(nc3c1C(F)F)-c1cccc(c1)-c1cc(F)ccc1O[C@@H](C)CCCCOC1(C)CCN2CC1` [Example 63, (2S)-2-(tert-Butoxy)-2-[(22S)-5-(difluoromethyl)-17-fluoro-4,22,28-trimethyl-21,27-dioxa-1,7,34-triazahexacyclo[26.2.2.1^6,^9.1^10,^14.0^2,^7.0^15,^20]tetratriaconta-2,4,6(34),8,10(33),11,13,15(20),16,18-decaen-3-yl]acetic acid] yielded an EC50 of 0.018 µM.
Work on `CC(=O)c1c(C)c([C@H](OC(C)(C)C)C(=O)O)c2n3cc(nc13)-c1cccc(c1)-c1cc(F)ccc1O[C@@H](C)CCCCOC1(C)CCN2CC1` [Example 64, (2S)-2-[(22S)-5-Acetyl-17-fluoro-4,22,28-trimethyl-21,27-dioxa-1,7,34-triazahexacyclo[26.2.2.1^6,^9.1^10,^14.0^2,^7.0^15,^20]tetratriaconta-2,4,6(34),8,10(33),11,13,15(20),16,18-decaen-3-yl]-2-(tert-butoxy)acetic acid] yielded an EC50 of 0.006 µM.
With `Cc1c([C@H](OC(C)(C)C)C(=O)O)c2n3cc(nc3c1C(C)(C)O)-c1cccc(c1)-c1cc(F)ccc1O[C@@H](C)CCCCOC1(C)CCN2CC1` [Example 65, (2S)-2-(tert-Butoxy)-2-[(22S)-17-fluoro-5-(2-hydroxypropan-2-yl)-4,22,28-trimethyl-21,27-dioxa-1,7,34-triazahexacyclo[26.2.2.1^6,^9.1^10,^14.0^2,^7.0^15,^20]tetratriaconta-2,4,6(34),8,10(33),11,13,15(20),16,18-decaen-3-yl]acetic acid] the EC50 was 0.006 µM.
